Data as given in US20090149461A1, “METHOD OF TREATING CANCER” (ABBOTT LABORATORIES, priority 2007, published 2009).
Where two headings read alike, the source gives them in different places.

Tests used:
Bcl-w = target: T1, Bcl-w (Homo sapiens, UniProt Q92843); assay: binding affinity to anti-apoptotic Bcl-2 family proteins
T1 sequence (Q92843 1-193): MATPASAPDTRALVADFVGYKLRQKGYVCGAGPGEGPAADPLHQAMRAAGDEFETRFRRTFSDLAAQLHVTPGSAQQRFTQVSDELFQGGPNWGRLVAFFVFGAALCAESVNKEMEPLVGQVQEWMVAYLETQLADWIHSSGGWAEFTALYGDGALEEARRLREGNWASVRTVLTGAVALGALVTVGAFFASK

Bcl-B = target: T2, Bcl-B (Homo sapiens, UniProt Q9HD36); assay: as above
T2 sequence (Q9HD36 1-204): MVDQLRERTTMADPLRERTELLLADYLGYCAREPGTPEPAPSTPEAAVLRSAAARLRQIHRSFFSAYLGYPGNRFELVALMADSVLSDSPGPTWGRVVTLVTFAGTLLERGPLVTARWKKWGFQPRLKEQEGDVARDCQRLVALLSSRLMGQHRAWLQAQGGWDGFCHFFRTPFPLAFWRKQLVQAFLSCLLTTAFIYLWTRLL

[1] = tested on: human tumor cell lines derived from small cell lung carcinomas and lymphoid malignancies; assay: mechanism-based cytotoxicity in tumor cell lines
[2] = tested on: 22 cell lines consisting of multiple leukemia and lymphoma types (B-cell and T-cell malignancies); assay: single agent activity in leukemia and lymphoma cell line panel; format: cell-based
DoHH-2 = assay: flank model of diffuse large B-cell lymphoma, monotherapy; format: in vivo; settings: DoHH-2 flank model; 100 mg/kg/day p.o., q.d.×17 days
Source text: (§1) Both of these tumors are known to express high levels of Bcl-2 due to the t(14;18) translocation. The WSU-DLCL2 line was isolated from a patient whose disease progressed following chemotherapy, radiation therapy and bone marrow transplantation and is recognized as a model of therapy-resistant lymphoma.

WSU-DLCL2 = assay: as above; format: in vivo; settings: 100 mg/kg/day p.o., q.d.×17 days
Source text: as §1

[3] = nonclinical pharmacokinetic profile in multiple animal models; format: in vivo; settings: all species studied
[4] = oral bioavailability from prototype formulations in dog; format: in vivo; settings: beagle, plasma, prototype solid dispersion and lipid-based formulations
Source text: (§2) The oral bioavailability of the compound is formulation dependent, with values of 30% to 50% obtained from prototype solid dispersion and lipid-based formulations in dog. […] Elimination of total radioactivity is rapid, with 90% of the dose recovered within 24-hours post-dose.

[5] = (14C) ABT-263 absorption and elimination in rat; format: in vivo
Source text: as §2

[6] = simulation of q.d. dosing in humans (exposure and platelets)
Source text: Based on preclinical evidence, potential treatment-related side effects may include drug interactions, lymphopenia, testicular effects, and thrombocytopenia. […] Under these conditions, platelet values are expected to be ′25 K/.iL at steady state.

[7] = tested on: cultured human peripheral blood lymphocytes; assay: chromosomal aberration assay; format: cell-based; settings: with or without metabolic activation
[8] = in vivo rat micronucleus assay
dog toxicity studies = format: in vivo
Source text: Target organs in the dog included lymphoid tissues (spleen, Peyer's patch, lymph nodes, and thymus (a 2-week study)), male reproductive tissues (testes and epididymides), and pancreas. The microscopic changes observed in these target organs included decreased size of follicles, cortex, and/or germinal centers in lymphoid tissue; decreased cellularity in mantle zone, germinal centers, and/or interfollicular areas of lymphoid tissue; spermatogonia, spermatocyte and/or spermatid (round and elongated) depletion; and pancreatic acinar cell single cell necrosis. With the exception of pancreatic acinar cell single cell necrosis, these microscopic changes were also noted following a 4-week dose-free recovery period.

platelets = assay: decrease in circulating platelets in animals; format: in vivo, mouse, rat and dog
Source text: Thrombocytopenia was seen after administration of a single dose and is present at the time of Cmax.

[9] = Phase 1/2a study pharmacokinetics; format: in vivo, human; settings: for AUC: human
Procedure: There was no drug administered for the 72 hours following the first dose of the first cycle (Day-3) in order to assess the single-dose pharmacokinetics and toxicity.
Additional blood samples were collected at 0 hour (pre dose) on Day 14, Cycle 2 through Cycle 6. Sufficient blood were collected to provide approximately 1 mL plasma from each sample. A total of 27 blood samples (approximately 81 mL) were collected per subject for pharmacokinetic analysis during Cycle 1 and one additional blood sample per subject per cycle in the following cycles (up to Cycle 6).
The plasma samples were transferred using plastic pipettes into screw-capped polypropylene tubes labeled with the drug number name, type of sample (plasma), the protocol number, the subject number, the study cycle and day and the planned time of sampling relative to dosing. The plasma samples were frozen at −20° C. or colder within 1 hour after collection and will remain frozen until shipped.
Additional parameters may be calculated if useful in the interpretation of the data.
Subjects self-administered ABT-263 orally once daily (QD). Each dose were taken with approximately 240 mL of water. On days that pre-dose pharmacokinetic sampling is required (Cycle 1 Day-3, Cycle 1 Day 1, Cycle 1 Day 2, Cycle 1 Day 14, Cycle 2 Day 14, Cycle 3 Day 14, Cycle 4 Day 14, Cycle 5 Day 14 and Cycle 6 Day 14 in Phase 1 and on Cycle 1 Day 14 in Phase 2a) dosing will occur in the morning in the clinic to facilitate pharmacokinetic sampling.

[10] = rat, in vivo, 4 weeks
[11] = tested on: Salmonella-Escherichia coli; assay: Salmonella-Escherichia coli bacterial mutation assay (Ames); settings: with or without metabolic activation

## CC1(C)CCC(c2ccc(Cl)cc2)=C(CN2CCN(c3ccc(C(=O)NS(=O)(=O)c4ccc(N[C@H](CCN5CCOCC5)CSc5ccccc5)c(S(=O)(=O)C(F)(F)F)c4)cc3)CC2)C1 [ABT-263, N-(4-(4-((2-(4-chlorophenyl)-5,5-dimethyl-1-cyclohex-1-en-1-yl)methyl)piperazin-1-yl)benzoyl)-4-(((1R)-3-(morpholin-4-yl)-1-((phenylsulfanyl)methyl)propyl)amino)-3-((trifluoromethyl)sulfonyl)benzenesulfonamide]
Bcl-w
  Ki: ≤ 1 nM
Bcl-B
  Ki: ≤ 1 nM
[1]
  EC50: ≤ 1000 nM
[2]
  cell lines with potent single agent activity: 10 of 22
DoHH-2
  monotherapy activity: significant monotherapy activity
WSU-DLCL2
  monotherapy activity: significant monotherapy activity
[3]; CD-1 (mouse), Sprague-Dawley (rat), beagle (dog), mouse, rat, dog, cynomolgus monkey, plasma, read-out: terminal half-lives
  half-life: 4.6 to 8.4 h
[3]
  plasma clearance: very low
  volumes of distribution: low
[4]
  bioavailability: 30 to 50%
[5]; (14C) ABT-263
  absorption: slowly absorbed
  parent drug in systemic circulation: major component
[5]; within 24-hours post-dose
  dose recovered (total radioactivity): 90%
[6]
  expected biologically effective plasma concentration in humans: 6.7 .iM
[7]
  chromosome aberrations in human lymphocytes in vitro: did not induce chromosome aberrations
[8]
  clastogenicity in rat micronucleus assay: not clastogenic
Dog toxicity studies; 2-week toxicity study, dogs with low platelet counts (<50 K/μL)
  bleeding time: prolonged bleeding time
Dog toxicity studies; 4-week toxicity study in dogs
  time to full reversal of platelet effect after treatment ended: less than 7 days
Dog toxicity studies; dog
  effect on lymphocytes: mild decrease
  effect on platelets: marked decrease
Dog toxicity studies; dog, in vivo, 4 weeks of administration to dogs
  NOAEL at 4 weeks: 1 mg/kg/day
platelets; after a single dose
  time for platelet counts to return to normal values: approximately one week
platelets; rat and dog
  duration for which platelet toxicity was tolerated: up to 28 days
[9]; fasting vs non-fasting
  effect of food on oral absorption: mild positive effect
[9]; human subjects
  Inter-subject variability in exposure: ~40%
  dose proportionality of exposure: dose-proportional
[9]; in vivo, preclinical target, read-out: Preclinical target AUC
  AUC: 53000 to 88000 ng·h/mL
[9]; plasma, oral, 225 mg (n=4), read-out: Mean AUC
  AUC: 47000 ng·h/mL
[9]; plasma, oral, 315 mg (n=5), read-out: Mean AUC
  AUC: 100000 ng·h/mL
[9]; plasma, oral, 440 mg (n=3), read-out: Mean AUC
  AUC: 109000 ng·h/mL
[9]; plasma, oral, human subjects
  half-life: 14 to 20 h
[10]
  tolerated dose: 10 mg/kg/day
Rat toxicity studies; 4-week rat toxicity study
  no-observed-adverse-effect-level (NOAEL): not reached
Rat toxicity studies; rat
  effect on liver enzymes (ALT, AST, alkaline phosphatase): minimal to mild increases
  effect on lymphocytes: minimal to moderate decreases
  effect on platelets: mild to marked decreases
[11]
  mutagenicity in the Ames assay: not mutagenic
